Laboratory results: patent US20200009176A1, “TREATMENT OF LEUKEMIA VIA THE ADMINISTRATION OF DOT1L INHIBITOR PINOMETOSTAT” (Epizyme, Inc., priority 2014, published 2020)
Where “and” joins values, the source holds several entries; their conditions need not be identical. Equal entries are not always repeated. Entries after “also recorded” stand apart in the source; their conditions may differ. Where two headings read alike, the source gives them in different places.

Legend:
MLL-rearranged cells = test: Pre-clinical study with MLL-rearranged and non-MLL rearranged cells (FIG. 3); assay type: cell-based; details: MLL-rearranged vs non-MLL rearranged cells
[1] = system: 14 cell lines (MLL-r or MLL-PTD); test: Cell proliferation in 14 cell lines; assay type: cell-based
Description: RNA and DNA were isolated from PBMCs and/or bone marrow collected prior to treatment from 18 patients enrolled in the adult pinometostat Phase 1 study (CT.gov: NCT01684150), at the following doses 24 (n=2), 36 (n=3), 54 (n=6), 80 (n=3) and 90 mg/m^2/day doses (n=4). mRNA transcript abundance was assessed using whole genome RNASeq and DNA variants were determined using a 194 gene panel, MyAML (Genection Inc.). Correlations of transcript abundance and DNA variants detected with categorical (responder=CR or PR [n=3], or no response [n=15]) and continuous response parameters (time on study (“TOS”), mean=59 days: range=8-196 days) were performed. For cell lines, whole genome RNASeq data was generated from 14 cell lines (MLL-r or MLL-PTD) with a range of in vitro sensitivity to pinometostat (cell proliferation IC50 2 nM to >10 μM) and RNA transcripts identified as correlated with IC5o were submitted for pathway analysis.

[2] = system: H3K79-me2 at MLL-r target genes HOXA9 and MEIS1; test: Adult Phase 1 study: H3K79-me2 ChIP-Seq in leukemic blasts; assay type: in vivo, human; details: 9 patients, 90 mg/m^2 expansion cohort
Description: (§1) This open label dose escalation/expansion study of pinometostat enrolled patients ≥18 years (yrs) with R/R leukemia (NCT01684150). In the dose-escalation phase, patients with AML, ALL, mixed lineage leukemia (MLL), myelodysplastic syndrome, myeloproliferative neoplasm or chronic myeloid leukemia were eligible. Eligibility in the two expansion cohorts: 90 mg/m^2 (n=17) and 54 mg/m^2 (n=6), was restricted to patients with MLL-r or MLL-partial tandem duplication (MLL-PTD). Pinometostat was given via continuous intravenous infusion (CIV) for 21 of 28 day cycles in the dose escalation phase and CIV for 28 of 28 day cycles in the expansion phase, until disease progression or unacceptable toxicity. All patients underwent serial collection of PK and peripheral blood mononuclear cells (PBMC) for PD. Leukemic blasts were isolated from PBMCs using flow cytometry and quantified for dimethylation of H3K79 (H3K79-me2) by ChIP-Seq.

[3] = Adult Phase 1 study: pharmacokinetics; assay type: in vivo, human; details: adults, CIV
Description: as §1

[4] = system: H3K79-me2 at MLL-r target genes HOXA9 and MEIS1; test: Pediatric Phase 1 study: H3K79-me2 ChIP-Seq in leukemic blasts; assay type: in vivo, human; details: 2 of 2 pediatric patients analyzed
Description: (§2) An open label dose escalation study of pinometostat was performed in patients (pts) aged 3 months to 18 […] leukemia (NCT02141828). Pinometostat was administered via continuous intravenous infusion until disease progression or unacceptable toxicity. Patients were assigned to one of two age-based dose escalation […] developed from simulations of pediatric exposures using a previously reported physiologically-based PK (PBPK) model (Waters, 2014). All patients underwent serial collection of PK and peripheral blood mononuclear cells (PBMC) for PD. Leukemic blasts were isolated from PBMCs using flow cytometry and quantified for di-methylation of H3K79 (H3K79-me2) by ChIP-Seq.

[5] = Pediatric Phase 1 study: pharmacokinetics; assay type: in vivo, human
Description: as §2

[6] = Adult Phase 1 dose escalation/expansion study: safety and clinical response; assay type: in vivo, human; set-up: key to clinical response, per patient: ▪: Complete Responder (Patient Nos. 16 and 18); ▴: Biological Effect (Leukocytosis) (Patient Nos. 1, 7, 13, 15, and 17); ●: Non-responder (Patient Nos. 2-6, 8-12, and 14)
Description: This open label dose escalation/expansion study of pinometostat enrolled patients ≥18 years (yrs) with R/R leukemia (NCT01684150). In the dose-escalation phase, patients with AML, ALL, mixed lineage leukemia (MLL), myelodysplastic syndrome, myeloproliferative neoplasm or chronic myeloid leukemia were eligible. […] Pinometostat was given via continuous intravenous infusion (CIV) for 21 of 28 day cycles in the dose escalation phase and CIV for 28 of 28 day cycles in the expansion phase, until disease progression or unacceptable toxicity. All patients underwent serial collection of PK and peripheral blood mononuclear cells (PBMC) for PD. […] As of Jun. 28, 2015, 49 patients have enrolled in the dose escalation and expansion phases. […] Correlations of transcript abundance and DNA variants detected with categorical (responder=CR or PR [n=3], or no response [n=15]) and continuous response parameters (time on study (“TOS”), mean=59 days: range=8-196 days) were performed.

[7] = Pediatric Phase 1 study: safety; assay type: in vivo, human; details: children with R/R leukemia
Description: as §2, with “ChIP-Seq. As of Jun. 28, 2015, 11 patients have enrolled in the dose escalation of the study consisting of 10 patients (6 patients at 70 mg/m^2/day, 4 patients at 90 mg/m^2/day) in the older age cohort (1 to 18 yr) and 1 patient (45 mg/m^2/day) in the younger age cohort (<1 yr).” for “ChIP-Seq.”

[8] = system: leukemia cell lines MOLM-13, OCI-AML4, and SKM-1; test: Growth inhibition assays, pinometostat with RAS pathway inhibitors; assay type: cell-based; details: pinometostat 3 μM, 300 nM, 150 nM or 75 nM plus SCH772984, Trametinib or Sorafenib; FIG. 13
Description: Growth inhibition assays were performed using leukemia cell lines to determine whether there is any synergy between pinometostat and RAS pathway inhibitors. The leukemia cell lines used were MOLM-13, OCI-AML4, and SKM-1. For these studies, different RAS pathway inhibitors were used, including SCH772984 (e.g., an ERK inhibitor), Trametinib (e.g., a MEK inhibitor), and Sorafenib (e.g., a Raf kinase inhibitor).

DOT1L = DOT1L (Homo sapiens, UniProt Q8TEK3); test: DOT1L affinity; assay type: binding
[9] = system: MLL-rearranged cells and xenografts; details: cited from earlier work
[10] = Stein 2014 ASH abstract 387; cited from earlier work
[11] = 18 adult patients of biomarker analysis
[12] = dose level 24 mg/m^2, listed as pinometostat
[13] = dose level 36 mg/m^2, listed as pinometostat
[14] = dose level 54 mg/m^2, listed as pinometostat
[15] = dose level 90 mg/m^2, listed as pinometostat

Chain of DOT1L (Q8TEK3 whole entry): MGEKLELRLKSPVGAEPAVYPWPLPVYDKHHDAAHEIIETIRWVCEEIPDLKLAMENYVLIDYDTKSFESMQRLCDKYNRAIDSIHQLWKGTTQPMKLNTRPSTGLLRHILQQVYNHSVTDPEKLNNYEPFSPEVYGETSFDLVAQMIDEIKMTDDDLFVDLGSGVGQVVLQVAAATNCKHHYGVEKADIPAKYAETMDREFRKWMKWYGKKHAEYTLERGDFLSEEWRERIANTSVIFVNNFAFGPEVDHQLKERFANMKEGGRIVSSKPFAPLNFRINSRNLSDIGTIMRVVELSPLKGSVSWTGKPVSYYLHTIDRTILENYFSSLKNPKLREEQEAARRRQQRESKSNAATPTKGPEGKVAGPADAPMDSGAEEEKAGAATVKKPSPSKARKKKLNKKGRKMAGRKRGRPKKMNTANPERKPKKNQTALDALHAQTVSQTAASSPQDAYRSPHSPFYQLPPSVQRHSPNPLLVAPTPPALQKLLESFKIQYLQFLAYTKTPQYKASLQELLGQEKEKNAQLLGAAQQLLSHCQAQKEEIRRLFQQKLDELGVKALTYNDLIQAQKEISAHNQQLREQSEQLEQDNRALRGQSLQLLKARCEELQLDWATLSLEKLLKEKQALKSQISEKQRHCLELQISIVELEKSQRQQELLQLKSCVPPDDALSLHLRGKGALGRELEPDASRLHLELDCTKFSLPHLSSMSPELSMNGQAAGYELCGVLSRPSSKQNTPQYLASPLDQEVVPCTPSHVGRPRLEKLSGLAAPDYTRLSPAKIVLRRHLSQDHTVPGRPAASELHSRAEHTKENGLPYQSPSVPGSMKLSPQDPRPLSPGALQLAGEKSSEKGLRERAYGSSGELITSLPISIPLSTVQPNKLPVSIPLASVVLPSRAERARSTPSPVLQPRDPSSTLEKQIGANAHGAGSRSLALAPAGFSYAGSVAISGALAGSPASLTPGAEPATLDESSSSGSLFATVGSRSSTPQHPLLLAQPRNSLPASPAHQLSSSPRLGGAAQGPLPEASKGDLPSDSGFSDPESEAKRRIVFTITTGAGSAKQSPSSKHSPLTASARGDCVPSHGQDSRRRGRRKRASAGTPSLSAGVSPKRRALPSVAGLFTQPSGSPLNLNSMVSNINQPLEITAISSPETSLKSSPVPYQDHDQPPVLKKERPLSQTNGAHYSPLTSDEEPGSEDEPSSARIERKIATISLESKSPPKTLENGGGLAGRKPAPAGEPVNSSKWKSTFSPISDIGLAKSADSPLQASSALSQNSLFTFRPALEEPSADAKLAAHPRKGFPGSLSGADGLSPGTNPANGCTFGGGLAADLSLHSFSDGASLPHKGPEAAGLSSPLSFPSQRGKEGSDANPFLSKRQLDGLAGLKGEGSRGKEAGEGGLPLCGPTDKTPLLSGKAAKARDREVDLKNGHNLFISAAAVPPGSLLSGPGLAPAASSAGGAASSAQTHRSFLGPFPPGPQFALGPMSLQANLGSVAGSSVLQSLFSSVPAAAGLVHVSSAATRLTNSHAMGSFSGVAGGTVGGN

In the case of `CC(C)N(C[C@H]1O[C@@H](n2cnc3c(N)ncnc32)[C@H](O)[C@@H]1O)[C@H]1C[C@@H](CCc2nc3cc(C(C)(C)C)ccc3[nH]2)C1` [Compound A2, (2R,3R,4S,5R)-2-(6-amino-9H-purin-9-yl)-5-((((1r,3S)-3-(2-(5-(tert-butyl)-1H-benzo[d]imidazol-2yl)ethyl)cyclobutyl)(isopropyl)amino)methyl)tetrahydrofuran-3,4-diol], the “killing of genetically defined cancer cells” value (MLL-rearranged cells) is reported as “selective killing”, the IC50 ([1]; least sensitive of 14 cell lines, read-out: cell proliferation IC50, upper end of range) is reported as greater than 10000 nM and the IC50 ([1]; most sensitive of 14 cell lines, read-out: cell proliferation IC50, lower end of range) is reported as 2 nM. For the same compound, the “median inhibition of H3K79-me2 methylation at HOXA9 and MEIS1” value [2] was 61%, the “range of inhibition of H3K79-me2 methylation at HOXA9 and MEIS1” value [2] was 13- 91% and the “attainment of steady-state plasma concentrations (Css)” value [3] was “Day 1”. The “dose proportionality of PK” value [3] was “Dose proportional PK”, the “range of inhibition of H3K79-me2 methylation at HOXA9 and MEIS1” value [4] was 44-72% and the “Steady-state CSF concentrations” value ([5]; children) was less than 2 ng/mL. The “Steady-state plasma concentrations (Css)” value ([5]; children ≥1 yr, 70 and 90 mg/m^2 doses) was 800 to 1600 ng/mL, the “time on study (TOS), mean” value [6, 11] was 59 days and the “time on study (TOS), range” value [6, 11] was 8 to 196 days. For the same compound, the safety profile ([6]; CIV, adults with R/R leukemia) was “acceptable safety profile”, the “differentiation effect in patients with MLL-r” value ([6]; FIG. 8, micrographs of blood and bone marrow) was “leads to a differentiation effect” and the drug-related treatment discontinuations ([6]; adult MLL-r and MLL-PTD, 90 mg/m^2/day uninterrupted, expansion stage) was “no drug-related treatment discontinuations”. For the same compound, the “objective response: PR” value ([6]; adults, 49 patients) was 1 pt, the “objective response: cytogenetic CR (MLL negative by FISH)” value ([6]; adults, 49 patients) was 1 pt and the “objective response: morphologic CR” value ([6]; adults, 49 patients) was 1 pt. For the same compound, the “resolution of leukemia cutis” value ([6]; adults, 49 patients) was 3 pts, the “patients with leukocytosis or differentiation” value ([6]; adults, absolute monocyte and neutrophil 50% above baseline and above upper limit of normal) was “Nine” and the “Time on Study, per patient” value [6, 12] was 49 days and 8 days. The “clinical response, per patient” value [6, 12] was “● and ▴”, the “Time on Study, per patient” value [6, 13] was 33 days and 65 days and 21 days and the “clinical response, per patient” value [6, 13] was “▴ (2×) and ●”. The “Time on Study, per patient” value [6, 14] was 49 days and 110 days and 196 days and 21 days, the “clinical response, per patient” value [6, 14] was “● (2×) and ▪ (2×)” and the “clinical response, per patient” value ([6]; dose level 80 mg/m^2) was “●”. For the same compound, the “Time on Study, per patient” value ([6]; dose level 80 mg/m^2, listed as pinometostat) was 41 days and 82 days, the “Time on Study, per patient” value [6, 15] was 31 days and 38 days and 50 days and 86 days and 136 days and 15 days and 28 days and the “clinical response, per patient” value [6, 15] was “● (5×) and ▴ (2×)”. The safety profile [7] was “acceptable safety profile”, the “effect on inhibition of cell growth, combination of RAS pathway inhibitor and pinometostat” value (shortened to “effect on inhibition of cell growth”) [8] was “synergistic effect; also recorded: synergistic cell killing” and the “affinity for DOT1L” value (DOT1L) was “sub-nanomolar”. For the same compound, the “MLL target gene expression” value [9] was “decreased”, the “histone H3K79 methylation” value [9] was “reduced” and the leukemia cell kill ([9]; listed as Pinometostat) was “induced selective leukemia cell kill”. The leukemia cell kill ([9]; listed as pinometostat) was “selective leukemia cell kill” and the “clinical activity, preliminary results of the adult trial” value [10] was “complete remissions in a subset of patients”.
In the case of `CNC(=O)c1cc(Oc2ccc(NC(=O)Nc3ccc(Cl)c(C(F)(F)F)c3)cc2)ccn1` [Sorafenib, reference compound], the “effect on inhibition of cell growth” value [8] is reported as “synergistic effect”.
In the case of `O=C(Nc1ccc2[nH]nc(-c3ccncc3)c2c1)[C@@H]1CCN(CC(=O)N2CCN(c3ccc(-c4ncccn4)cc3)CC2)C1` [SCH772984, reference compound], the “effect on inhibition of cell growth” value [8] is reported as “synergistic effect”.
